Data on eleven compounds can be found in patent EP3807270B1, “NOVEL HETEROARYL HETEROCYCLYL COMPOUNDS FOR THE TREATMENT OF AUTOIMMUNE DISEASE” (F. Hoffmann-La Roche AG, priority 2018, dated 2019).

This assay concerns the target T1, human TLR8 (Homo sapiens, UniProt Q9NR97).
T1 construct: host or cells: HEK293 (HEK-Blue)
T1 sequence (Q9NR97 27-1041): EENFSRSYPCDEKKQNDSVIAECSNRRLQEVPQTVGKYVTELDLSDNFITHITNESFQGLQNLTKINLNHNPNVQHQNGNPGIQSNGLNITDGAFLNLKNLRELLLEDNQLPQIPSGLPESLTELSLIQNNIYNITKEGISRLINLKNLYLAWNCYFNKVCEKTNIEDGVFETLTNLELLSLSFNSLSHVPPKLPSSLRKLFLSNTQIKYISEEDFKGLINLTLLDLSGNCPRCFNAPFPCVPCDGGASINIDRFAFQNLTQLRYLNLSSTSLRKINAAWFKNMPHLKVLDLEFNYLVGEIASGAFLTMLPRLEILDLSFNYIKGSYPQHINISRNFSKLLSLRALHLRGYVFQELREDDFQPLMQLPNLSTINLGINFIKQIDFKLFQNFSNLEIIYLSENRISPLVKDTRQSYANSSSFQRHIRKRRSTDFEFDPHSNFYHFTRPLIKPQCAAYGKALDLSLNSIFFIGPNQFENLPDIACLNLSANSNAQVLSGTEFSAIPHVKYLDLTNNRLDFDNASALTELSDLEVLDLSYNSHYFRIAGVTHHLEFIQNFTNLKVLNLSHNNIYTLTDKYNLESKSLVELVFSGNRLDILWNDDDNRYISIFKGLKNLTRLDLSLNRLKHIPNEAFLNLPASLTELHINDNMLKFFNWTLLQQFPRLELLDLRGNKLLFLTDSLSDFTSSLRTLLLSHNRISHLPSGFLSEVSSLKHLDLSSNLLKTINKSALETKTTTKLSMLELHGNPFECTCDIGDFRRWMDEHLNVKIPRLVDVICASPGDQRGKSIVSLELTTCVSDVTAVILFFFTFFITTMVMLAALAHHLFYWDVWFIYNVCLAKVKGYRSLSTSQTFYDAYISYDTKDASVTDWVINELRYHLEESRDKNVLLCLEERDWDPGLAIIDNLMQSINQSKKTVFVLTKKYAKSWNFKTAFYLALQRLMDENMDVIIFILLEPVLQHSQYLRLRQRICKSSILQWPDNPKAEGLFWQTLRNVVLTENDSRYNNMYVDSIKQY
In words: HEK293-Blue-hTLR-8 cells assay (SEAP reporter, R848 stimulation). Format: cell-based. Conditions: HEK293-Blue-hTLR8 cells, R848, 20 hrs; read-out: HEK/hTLR8 IC50. The source says: A stable HEK293-Blue-hTLR-8 cell line was purchased from InvivoGen (Cat.#: hkb-htlr8, San Diego, California, USA). These cells were originally designed for studying the stimulation of human TLR8 by monitoring the activation of NF-κB. A SEAP (secreted embryonic alkaline phosphatase) reporter gene was placed under the control of the IFN-β minimal promoter fused to five NF-κB and AP-1-binding sites. The SEAP was induced by activating NF-κB and AP-1 via stimulating HEK-Blue hTLR8 cells with TLR8 ligands. Therefore, the reporter expression was declined by TLR8 antagonist under the stimulation of a ligand, such as R848, for incubation of 20 hrs. The cell culture supernatant SEAP reporter activity was determined using QUANTI-Blue™ kit (Cat.#: rep-qb1, Invivogen, San Diego, Ca, USA) at a wavelength of 640 nm, a detection medium that turns purple or blue in the presence of alkaline phosphatase.
HEK293-Blue-hTLR8 cells were incubated at a density of 250,000-450,000 cells/mL in a volume of 170 µL in a 96-well plate in Dulbecco's Modified Eagle's medium (DMEM) containing 4.5 g/L glucose, 50 U/mL penicillin, […], […], 2 mM L-glutamine, 10% (v/v) heat-inactivated fetal bovine serum with addition of 20 µL test compound in a serial dilution in the presence of final DMSO at 1% and 10 µL of 60uM R848 in above DMEM, perform incubation under 37 °C in a CO2 incubator for 20 hrs. Then 20 µL of the supernatant from each well was incubated with 180 µL Quanti-blue substrate solution at 37°C for 2 hrs and the absorbance was read at 620-655 nm using a spectrophotometer. The signaling pathway that TLR8 activation leads to downstream NF-κB activation has been widely accepted, and therefore similar reporter assay was modified for evaluating TLR8 antagonist.

Some results are limits rather than exact numbers.

Regarding `C[C@@H]1CN(c2ccc(C#N)c3ncsc23)C[C@H](CN2CCN(c3cnc4c(c3)CNC4)CC2)O1` [Example 8, 7-[(2S,6R)-2-[[4-(6,7-dihydro-5H-pyrrolo[3,4-b]pyridin-3-yl)piperazin-1-yl]methyl]-6-methyl-morpholin-4-yl]-1,3-benzothiazole-4-carbonitrile], the IC50 was less than 3 nM.

Consider `C[C@@H]1CN(c2ccc(C#N)c3ncccc23)C[C@H](CN2CCN(c3ncc4c(n3)CNC4)CC2)O1` [Example 11, 5-[(2S,6R)-2-[[4-(6,7-dihydro-5Hpyrrolo[3,4-d]pyrimidin-2-yl)piperazin-1-yl]methyl]-6-methyl-morpholin-4-yl]quinoline-8-carbonitrile], for which the IC50 stood at 8 nM.

Consider `C[C@@H]1CN(c2ccc(C#N)c3ncccc23)C[C@H](CN2CCN(c3ncc4c(n3)CNCC4)CC2)O1` [Example 12, 5-[(2R,6S)-2-methyl-6-[[4-(5,6,7,8-tetrahydropyrido[3,4-d]pyrimidin-2-yl)piperazin-1-yl]methyl]morpholin-4-yl]quinoline-8-carbonitrile], for which the IC50 was determined as 5 nM.

In the case of `C[C@@H]1CN(c2ccc(C#N)c3ncccc23)C[C@H](CN2CCN(c3ccc4c(c3)CNC4)C(CO)C2)O1` (stereo partly drawn) [Example 13, 5-[(2S,6R)-2-[[3-(hydroxymethyl)-4-isoindolin-5-yl-piperazin-1-yl]methyl]-6-methyl-morpholin-4-yl]quinoline-8-carbonitrile], the IC50 worked out at 22 nM.

Regarding `C[C@@H]1CN(c2ccc(C#N)c3ncccc23)C[C@H](CN2CCN(c3ccc4c(n3)CCNC4)CC2)O1` [Example 14, 5-[(2R,6S)-2-methyl-6-[[4-(5,6,7,8-tetrahydro-1,6-naphthyridin-2-yl)piperazin-1-yl]methyl]morpholin-4-yl]quinoline-8-carbonitrile], the IC50 turned out to be 4 nM.

Take `C[C@@H]1CN(c2ccc(C#N)c3ncccc23)C[C@H](CN2CCN(c3ccc4c(c3)CNC4)CC2CO)O1` (stereo partly drawn) [Example 15, 5-[(2S,6R)-2-[[2-(hydroxymethyl)-4-isoindolin-5-yl-piperazin-1-yl]methyl]-6-methyl-morpholin-4-yl]quinoline-8-carbonitrile]: the IC50 was found to be 11 nM.

`C[C@@H]1CN(c2ccc(C#N)c3ncccc23)C[C@H](CN2CCN(c3ccc4c(c3)CN(CCO)C4)CC2)O1` [Example 16, 5-[(2S,6R)-2-[[4-[2-(2-hydroxyethyl)isoindolin-5-yl]piperazin-1-yl]methyl]-6-methyl-morpholin-4-yl]quinoline-8-carbonitrile]: the IC50 is 10 nM.

For the compound `C[C@@H]1CN(c2ccc(C#N)c3ncccc23)C[C@H](CN2CCN(c3cnc4c(n3)CCNC4)CC2)O1` [Example 17, 5-[(2R,6S)-2-methyl-6-[[4-(5,6,7,8-tetrahydropyrido[3,4-b]pyrazin-2-yl)piperazin-1-yl]methyl]morpholin-4-yl]quinoline-8-carbonitrile], the IC50 was 4 nM.

As to `C[C@@H]1CN(c2ccc(C#N)c3ncccc23)C[C@H](CN2CCN(c3cc4c(cn3)CNC4)CC2)O1` [Example 18, 5-[(2S,6R)-2-[[4-(2,3-dihydro-1H-pyrrolo[3,4-c]pyridin-6-yl)piperazin-1-yl]methyl]-6-methyl-morpholin-4-yl] quinoline-8-carbonitrile], the IC50 worked out at 9 nM.

On to `C[C@@H]1CN(c2ccc(C#N)c3ncccc23)C[C@H](CN2CCN(c3cc4c(cn3)CNCC4)CC2)O1` [Example 19, 5-[(2R,6S)-2-methyl-6-[[4-(5,6,7,8-tetrahydro-2,7-naphthyridin-3-yl)piperazin-1-yl]methyl]morpholin-4-yl]quinoline-8-carbonitrile], for which the IC50 is 4 nM.

In the case of `C[C@@H]1CN(c2ccc(C#N)c3ncccc23)C[C@H](CN2CCN(c3cc4c(cn3)CCNC4)CC2)O1` [Example 20, 5-[(2R,6S)-2-methyl-6-[[4-(5,6,7,8-tetrahydro-2,6-naphthyridin-3-yl)piperazin-1-yl]methyl]morpholin-4-yl]quinoline-8-carbonitrile], the IC50 was determined as 6 nM.
